Measured values taken from ChEMBL document CHEMBL5537159, “Discovery and SAR of JTE-151: A Novel RORγ Inhibitor for Clinical Development” (J Med Chem, 2024).

Legend:
Acetylcholinesterase = Acetylcholinesterase (Electrophorus electricus, UniProt O42275); experiment: Inhibition of Electric eel AChE
[1] = Inhibition of human nicotinic receptor
[2] = Toxicity in Beagle dog assessed as development-limiting toxicity at 30 to 100 mg/kg, po administered once daily and measured on day 1,14 and 28; format: organism-based, Canis lupus familiaris; details: in vivo, 672 h, dose 30-100 mg/kg, time 28 day
[3] = Selectivity ratio of agonist activity at human PPARgamma to inhibition of RORgamma (unknown origin)
[4] = Cmax in human at 1600 […], po administered as single dose and measured upto 144 hrs; format: ADME, organism-based; details: in vivo
[5] = Elimination half life in human at 1000 mg/kg, po administered as single dose and measured upto 144 hrs; format: ADME, organism-based; details: in vivo, read-out: beta t1/2 (converted)
[6] = Elimination half life in human at 400 mg/kg, po administered as single dose and measured upto 144 hrs; format: ADME, organism-based; details: in vivo, read-out: beta t1/2 (converted)
Cytochrome P450 3A4 = Cytochrome P450 3A4 (Homo sapiens, UniProt P08684); experiment: Inhibition of CYP3A4 in human liver microsomes using testosterone as substrate; format: ADME, Microsome
[7] = Volume of distribution at steady state in Beagle dog at 1 mg/kg, iv administered as single dose and measured after 24 hrs; format: ADME, organism-based, Canis lupus familiaris; details: in vivo, read-out: Vdss
[8] = Total body clearance in CD(SD) rat at 1 mg/kg, iv administered as single dose and measured after 24 hrs; format: ADME, organism-based; details: in vivo
[9] = biological target: Prostaglandin G/H synthase 1 (Ovis aries, UniProt P05979); experiment: Inhibition of ovine cox-1
[10] = Selectivity ratio of agonist activity at human VDR to inhibition of RORgamma (unknown origin)
[11] = Elimination half life in human at 30 mg/kg, po administered as single dose and measured upto 144 hrs; format: ADME, organism-based; details: in vivo, read-out: beta t1/2 (converted)
[12] = Lipophilicity, logD of compound by RP-HPLC analysis; format: physicochemical
[13] = Selectivity ratio of agonist activity at human PPARalpha to inhibition of RORgamma (unknown origin)
[14] = Inhibition of rat glutamate receptor
[15] = biological target: Voltage-gated L-type calcium channel (Rattus norvegicus, UniProt P22002+Q02485+P27732); experiment: Inhibition of rat L-type Ca2+ channel; format: protein assay
[16] = Toxicity in CHL cells assessed as chromosomal aberration at 120 to 140 ug/ml incubated for 6 hrs in presence of S9 fraction; format: subcellular, Cricetulus griseus; details: chinese hamster, s9, 6 h, dose 120-140 µg/ml
[17] = Cmax in human at 1000 […], po administered as single dose and measured upto 144 hrs; format: ADME, organism-based; details: in vivo
Cytochrome P450 2C9 = Cytochrome P450 2C9 (Homo sapiens, UniProt P11712); experiment: Inhibition of CYP2C9 in human liver microsomes; format: ADME, Microsome
[18] = Volume of distribution at steady state in CD(SD) rat at 1 mg/kg, iv administered as single dose and measured after 24 hrs; format: ADME, organism-based; details: in vivo, read-out: Vdss
[19] = Genotoxicity in Salmonella typhimurium TA1535 at 188 to 5000 ug in absence of S9 fraction by bacterial reverse mutation test; format: toxicity, Salmonella enterica subsp. enterica serovar Typhimurium; details: in vivo; dose 188-5000 µg
[20] = Selectivity ratio of antagonist activity at mouse LXRalpha to inhibition of RORgamma (unknown origin)
[21] = Genotoxicity in Salmonella typhimurium TA100 at 23 to 750 ug in presence of S9 fraction by bacterial reverse mutation test; format: toxicity, subcellular, Salmonella enterica subsp. enterica serovar Typhimurium; details: dose 23-750 µg
[22] = biological target: 5-hydroxytryptamine receptor 3A (Homo sapiens, UniProt P46098); experiment: Inhibition of human 5-HT3 receptor
Cytochrome P450 2A6 = Cytochrome P450 2A6 (Homo sapiens, UniProt P11509); experiment: Inhibition of CYP2A6 in human liver microsomes; format: ADME, Microsome
[23] = Cmax in human at 100 […], po administered as single dose and measured upto 144 hrs; format: ADME, organism-based; details: in vivo
[24] = biological target: Beta-2 adrenergic receptor (Homo sapiens, UniProt P07550); experiment: Inhibition of human adrenergic beta2 receptor
[25] = AUClast in human at 600 mg/kg, po administered as single dose and measured upto 144 hrs; format: ADME, organism-based; details: in vivo
[26] = Volume of distribution at steady state in cynomolgus monkey at 1 mg/kg, iv administered as single dose and measured after 24 hrs; format: ADME, organism-based, Macaca fascicularis; details: in vivo, read-out: Vdss
[27] = Elimination half life in CD(SD) rat at 1 mg/kg, iv administered as single dose and measured after 24 hrs; format: ADME, organism-based; details: in vivo, read-out: beta t1/2 (converted)
[28] = Tmax in human at 30 […], po administered as single dose and measured upto 144 hrs; format: ADME, organism-based; details: in vivo
[29] = Selectivity ratio of agonist activity at human PPARdelta to inhibition of RORgamma (unknown origin)
[30] = biological target: T1, Nuclear receptor ROR-gamma (Homo sapiens, UniProt P51449); experiment: Inhibition of GAL4 DNA-binding domain fused RORgamma (unknown origin) transfected in CHO-K1 cells incubated for 2 days by luciferase assay; format: cell-based
T1 sequence (P51449 whole entry): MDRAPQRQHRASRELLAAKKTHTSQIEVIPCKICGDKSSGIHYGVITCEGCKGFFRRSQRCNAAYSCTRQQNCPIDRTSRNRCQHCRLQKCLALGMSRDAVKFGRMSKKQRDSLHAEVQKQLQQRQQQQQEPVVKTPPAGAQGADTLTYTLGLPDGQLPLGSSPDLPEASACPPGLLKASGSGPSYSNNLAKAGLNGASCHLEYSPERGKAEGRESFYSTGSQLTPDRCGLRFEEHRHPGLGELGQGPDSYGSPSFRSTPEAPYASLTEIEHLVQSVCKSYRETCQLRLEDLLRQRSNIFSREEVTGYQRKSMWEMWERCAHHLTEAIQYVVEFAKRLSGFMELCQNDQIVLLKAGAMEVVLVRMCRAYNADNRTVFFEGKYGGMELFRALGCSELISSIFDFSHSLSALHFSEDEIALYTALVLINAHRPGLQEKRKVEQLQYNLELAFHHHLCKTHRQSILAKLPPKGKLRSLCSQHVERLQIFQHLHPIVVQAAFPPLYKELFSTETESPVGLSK

[31] = biological target: Voltage-gated inwardly rectifying potassium channel KCNH2 (Homo sapiens, UniProt Q12809); experiment: Inhibition of hERG transfected in HEK293 cells by whole cell patch-clamp method; format: toxicity, cell-based
[32] = Genotoxicity in Salmonella typhimurium TA1535 at 188 to 5000 ug in presence of S9 fraction by bacterial reverse mutation test; format: toxicity, subcellular, Salmonella enterica subsp. enterica serovar Typhimurium; details: dose 188-5000 µg
Cytochrome P450 3A5 = Cytochrome P450 3A5 (Homo sapiens, UniProt P20815); experiment: Inhibition of CYP3A5 in human liver microsomes using testosterone as substrate; format: ADME, Microsome
Cytochrome P450 1A2 = Cytochrome P450 1A2 (Homo sapiens, UniProt P05177); experiment: Inhibition of CYP1A2 in human liver microsomes; format: ADME, Microsome
Chain of Cytochrome P450 1A2 (P05177 whole entry): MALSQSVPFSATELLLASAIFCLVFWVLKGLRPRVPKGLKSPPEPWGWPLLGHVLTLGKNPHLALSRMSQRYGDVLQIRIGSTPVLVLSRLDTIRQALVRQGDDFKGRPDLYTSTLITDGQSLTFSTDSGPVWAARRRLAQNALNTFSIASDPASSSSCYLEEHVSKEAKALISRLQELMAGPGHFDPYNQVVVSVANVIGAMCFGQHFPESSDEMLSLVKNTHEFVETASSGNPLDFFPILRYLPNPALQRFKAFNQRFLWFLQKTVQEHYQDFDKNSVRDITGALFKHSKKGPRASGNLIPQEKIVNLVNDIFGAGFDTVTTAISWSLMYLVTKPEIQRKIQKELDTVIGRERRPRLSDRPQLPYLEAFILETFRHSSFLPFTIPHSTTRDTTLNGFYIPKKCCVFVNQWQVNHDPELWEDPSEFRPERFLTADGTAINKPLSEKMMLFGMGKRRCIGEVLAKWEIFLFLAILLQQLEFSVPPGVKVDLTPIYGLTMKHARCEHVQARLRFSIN

Chain of Voltage-gated inwardly rectifying potassium channel KCNH2 (Q12809 whole entry): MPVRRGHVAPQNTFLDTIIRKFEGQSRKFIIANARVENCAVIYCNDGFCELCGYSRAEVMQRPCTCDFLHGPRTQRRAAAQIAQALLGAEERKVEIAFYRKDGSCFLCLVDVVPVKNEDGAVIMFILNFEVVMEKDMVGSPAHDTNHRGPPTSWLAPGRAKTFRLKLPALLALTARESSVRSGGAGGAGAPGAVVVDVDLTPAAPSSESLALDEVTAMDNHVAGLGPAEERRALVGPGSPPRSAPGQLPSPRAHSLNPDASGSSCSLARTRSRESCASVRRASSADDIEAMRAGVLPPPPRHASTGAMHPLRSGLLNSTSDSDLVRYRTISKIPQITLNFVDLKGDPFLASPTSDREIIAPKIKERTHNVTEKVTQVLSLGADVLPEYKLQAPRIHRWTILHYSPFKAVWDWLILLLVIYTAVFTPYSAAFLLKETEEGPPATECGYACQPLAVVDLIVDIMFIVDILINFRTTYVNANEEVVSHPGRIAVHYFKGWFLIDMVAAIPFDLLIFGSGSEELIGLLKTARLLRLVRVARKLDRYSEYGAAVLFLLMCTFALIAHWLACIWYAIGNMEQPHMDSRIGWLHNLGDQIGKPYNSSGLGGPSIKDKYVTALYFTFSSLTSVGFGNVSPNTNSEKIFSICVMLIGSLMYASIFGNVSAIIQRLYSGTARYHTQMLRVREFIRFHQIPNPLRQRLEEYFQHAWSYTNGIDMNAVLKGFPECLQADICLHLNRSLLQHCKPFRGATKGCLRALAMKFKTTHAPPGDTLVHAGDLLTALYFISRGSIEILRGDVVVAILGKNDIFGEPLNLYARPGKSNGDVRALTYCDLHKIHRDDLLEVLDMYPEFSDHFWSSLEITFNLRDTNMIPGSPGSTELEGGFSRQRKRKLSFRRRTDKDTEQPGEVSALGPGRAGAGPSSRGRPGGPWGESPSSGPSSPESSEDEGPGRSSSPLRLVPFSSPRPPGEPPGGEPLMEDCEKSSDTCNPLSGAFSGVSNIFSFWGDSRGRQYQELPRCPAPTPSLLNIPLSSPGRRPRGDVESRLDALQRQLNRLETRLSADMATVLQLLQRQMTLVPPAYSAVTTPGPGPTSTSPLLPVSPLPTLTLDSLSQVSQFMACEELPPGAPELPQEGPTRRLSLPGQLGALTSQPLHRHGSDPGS
Chain of Cytochrome P450 2C9 (P11712 whole entry): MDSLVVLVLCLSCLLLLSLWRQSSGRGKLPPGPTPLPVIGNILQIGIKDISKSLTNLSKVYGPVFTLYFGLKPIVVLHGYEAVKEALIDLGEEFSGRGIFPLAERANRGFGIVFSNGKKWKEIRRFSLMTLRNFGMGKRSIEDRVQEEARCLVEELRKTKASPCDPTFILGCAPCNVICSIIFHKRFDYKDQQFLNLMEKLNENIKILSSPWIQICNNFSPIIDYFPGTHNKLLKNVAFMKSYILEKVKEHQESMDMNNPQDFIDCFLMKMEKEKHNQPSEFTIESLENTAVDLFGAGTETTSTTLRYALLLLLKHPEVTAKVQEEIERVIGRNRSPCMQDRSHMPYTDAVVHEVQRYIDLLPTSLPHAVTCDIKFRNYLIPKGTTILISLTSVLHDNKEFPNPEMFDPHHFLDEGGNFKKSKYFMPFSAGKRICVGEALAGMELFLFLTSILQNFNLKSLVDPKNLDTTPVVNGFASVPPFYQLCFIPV
Chain of Cytochrome P450 3A4 (P08684 whole entry): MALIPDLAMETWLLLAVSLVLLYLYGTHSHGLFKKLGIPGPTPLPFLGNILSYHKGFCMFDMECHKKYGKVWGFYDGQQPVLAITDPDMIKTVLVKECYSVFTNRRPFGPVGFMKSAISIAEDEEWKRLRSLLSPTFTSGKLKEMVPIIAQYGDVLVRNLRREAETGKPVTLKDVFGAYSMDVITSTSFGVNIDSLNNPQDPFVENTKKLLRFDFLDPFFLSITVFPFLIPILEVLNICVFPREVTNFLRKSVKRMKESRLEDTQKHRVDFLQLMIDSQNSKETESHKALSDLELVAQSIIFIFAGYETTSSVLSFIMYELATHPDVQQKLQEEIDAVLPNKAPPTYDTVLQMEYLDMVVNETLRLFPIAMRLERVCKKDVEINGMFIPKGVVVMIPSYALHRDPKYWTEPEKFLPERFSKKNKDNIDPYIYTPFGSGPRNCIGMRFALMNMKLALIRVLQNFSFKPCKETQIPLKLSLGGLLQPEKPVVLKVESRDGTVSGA
Chain of Cytochrome P450 3A5 (P20815 whole entry): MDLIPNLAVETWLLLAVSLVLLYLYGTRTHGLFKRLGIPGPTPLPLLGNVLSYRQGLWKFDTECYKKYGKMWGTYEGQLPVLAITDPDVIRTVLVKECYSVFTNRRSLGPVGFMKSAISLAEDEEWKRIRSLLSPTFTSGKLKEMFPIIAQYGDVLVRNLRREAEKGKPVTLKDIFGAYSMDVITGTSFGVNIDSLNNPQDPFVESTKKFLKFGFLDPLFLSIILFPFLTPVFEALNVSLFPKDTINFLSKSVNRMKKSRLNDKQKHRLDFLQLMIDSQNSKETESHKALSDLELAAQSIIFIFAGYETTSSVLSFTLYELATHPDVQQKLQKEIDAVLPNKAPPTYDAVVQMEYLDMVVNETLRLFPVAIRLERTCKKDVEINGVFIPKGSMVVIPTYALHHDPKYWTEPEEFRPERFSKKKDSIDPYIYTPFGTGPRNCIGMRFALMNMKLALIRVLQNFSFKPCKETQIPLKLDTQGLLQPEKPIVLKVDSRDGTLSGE
Chain of Acetylcholinesterase (O42275 whole entry): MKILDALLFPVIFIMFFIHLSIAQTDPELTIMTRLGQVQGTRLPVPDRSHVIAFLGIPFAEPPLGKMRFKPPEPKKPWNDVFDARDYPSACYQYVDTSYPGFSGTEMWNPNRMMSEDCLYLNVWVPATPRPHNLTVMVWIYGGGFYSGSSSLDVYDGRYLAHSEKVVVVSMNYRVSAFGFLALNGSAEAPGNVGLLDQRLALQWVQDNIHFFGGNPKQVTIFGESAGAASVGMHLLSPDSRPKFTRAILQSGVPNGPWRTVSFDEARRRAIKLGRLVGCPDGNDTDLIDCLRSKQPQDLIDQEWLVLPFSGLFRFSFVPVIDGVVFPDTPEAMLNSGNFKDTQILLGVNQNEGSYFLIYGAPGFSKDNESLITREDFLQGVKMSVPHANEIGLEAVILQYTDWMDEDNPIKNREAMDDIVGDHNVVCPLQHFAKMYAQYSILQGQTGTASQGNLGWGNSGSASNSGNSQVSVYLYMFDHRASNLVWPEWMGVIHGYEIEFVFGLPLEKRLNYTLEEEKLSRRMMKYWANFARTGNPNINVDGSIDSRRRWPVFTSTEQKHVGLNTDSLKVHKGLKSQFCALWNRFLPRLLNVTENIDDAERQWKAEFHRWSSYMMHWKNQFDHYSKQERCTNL
Chain of Prostaglandin G/H synthase 1 (P05979 whole entry): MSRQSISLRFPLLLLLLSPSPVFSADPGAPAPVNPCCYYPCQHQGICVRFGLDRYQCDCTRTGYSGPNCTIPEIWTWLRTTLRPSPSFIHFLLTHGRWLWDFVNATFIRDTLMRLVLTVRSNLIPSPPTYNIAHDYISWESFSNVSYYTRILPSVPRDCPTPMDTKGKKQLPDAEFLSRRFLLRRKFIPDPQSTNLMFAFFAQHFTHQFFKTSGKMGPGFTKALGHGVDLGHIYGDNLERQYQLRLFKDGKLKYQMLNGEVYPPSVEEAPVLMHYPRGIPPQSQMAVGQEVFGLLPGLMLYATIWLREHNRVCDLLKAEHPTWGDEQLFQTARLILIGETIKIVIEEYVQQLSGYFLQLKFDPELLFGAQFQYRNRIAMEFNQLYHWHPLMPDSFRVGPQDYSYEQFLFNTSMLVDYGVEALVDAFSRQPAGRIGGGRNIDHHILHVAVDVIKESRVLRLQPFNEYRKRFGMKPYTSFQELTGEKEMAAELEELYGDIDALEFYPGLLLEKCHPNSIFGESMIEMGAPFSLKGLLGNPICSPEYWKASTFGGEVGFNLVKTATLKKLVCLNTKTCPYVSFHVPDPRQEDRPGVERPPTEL
Chain of Beta-2 adrenergic receptor (P07550 whole entry): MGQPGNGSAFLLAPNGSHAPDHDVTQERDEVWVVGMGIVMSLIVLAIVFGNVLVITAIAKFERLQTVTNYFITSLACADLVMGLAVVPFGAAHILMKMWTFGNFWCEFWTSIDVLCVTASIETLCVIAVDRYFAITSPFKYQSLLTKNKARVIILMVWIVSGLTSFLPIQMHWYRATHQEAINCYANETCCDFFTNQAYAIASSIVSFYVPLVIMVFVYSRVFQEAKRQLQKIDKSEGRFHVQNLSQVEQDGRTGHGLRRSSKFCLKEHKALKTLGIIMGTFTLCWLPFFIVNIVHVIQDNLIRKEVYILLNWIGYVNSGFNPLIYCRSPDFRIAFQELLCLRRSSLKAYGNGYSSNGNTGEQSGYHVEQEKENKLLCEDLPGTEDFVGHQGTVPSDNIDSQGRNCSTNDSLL

Cc1ccc(NC(=O)C[C@H](CCC(=O)O)c2noc([C@H]3C[C@@H](CC(C)(C)C)C3)c2C2CC2)c(Cl)c1
IC50 (Acetylcholinesterase): > 10 µM | IC50 [1]: > 10 µM | Activity [2]: Non-Toxic | Selectivity ratio [3]: > 100 | Cmax [4]: 60700 ng/mL | half-life [5]: 7.91 h | half-life [6]: 7.42 h | IC50 (Cytochrome P450 3A4): > 10 µM | Vd [7]: 0.19 L/kg | clearance [8]: 1.83 mL/min/kg | IC50 [9]: > 10 µM | Selectivity ratio [10]: > 100 | half-life [11]: 5.63 h | logD [12]: 5.1 | Selectivity ratio [13]: > 100 | IC50 [14]: > 10 µM | IC50 [15]: > 10 µM | Activity [16]: Non-Toxic | Cmax [17]: 38100 ng/mL | IC50 (Cytochrome P450 2C9): > 10 µM | Vd [18]: 0.34 L/kg | Activity [19]: Non-Toxic | Selectivity ratio [20]: > 100 | Activity [21]: Non-Toxic | IC50 [22]: > 10 µM | IC50 (Cytochrome P450 2A6): > 10 µM | Cmax [23]: 3810 ng/mL | IC50 [24]: > 10 µM | AUC(0-t) at 144 h [25]: 140 µg·h/mL | Vd [26]: 0.36 L/kg | half-life [27]: 3 h | Tmax [28]: 2.77 h | Selectivity ratio [29]: > 100 | EC50 [30]: 0.013 µM | IC50 [31]: 7.4 µM | Activity [32]: Non-Toxic | IC50 (Cytochrome P450 3A5): > 10 µM | IC50 (Cytochrome P450 1A2): > 10 µM
